# According to ChEMBL document CHEMBL1126835, “QSAR's from similarity matrices. Technique validation and application in the comparison of different similarity evaluation methods” (J Med Chem, 1993):
# How the values were obtained:
# [1] = Dissociation constant (pKa); type: physicochemical
# [2] = molecular target: T1, Sex hormone-binding globulin (Homo sapiens) (UniProt P04278)
# T1 sequence (whole entry): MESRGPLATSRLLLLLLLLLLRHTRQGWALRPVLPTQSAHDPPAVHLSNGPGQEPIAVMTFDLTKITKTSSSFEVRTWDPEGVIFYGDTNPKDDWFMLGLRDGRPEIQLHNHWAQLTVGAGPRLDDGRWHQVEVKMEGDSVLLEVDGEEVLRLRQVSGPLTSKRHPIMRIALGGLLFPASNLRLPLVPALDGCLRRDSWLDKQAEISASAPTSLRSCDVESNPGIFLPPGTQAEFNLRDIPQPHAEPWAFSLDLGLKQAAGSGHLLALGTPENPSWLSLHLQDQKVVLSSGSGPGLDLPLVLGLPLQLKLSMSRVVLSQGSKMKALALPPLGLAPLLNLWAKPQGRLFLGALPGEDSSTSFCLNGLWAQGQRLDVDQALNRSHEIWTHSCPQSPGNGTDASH
# Description: Binding affinity towards human testosterone binding globulin.
# [3] = molecular target: T2, Corticosteroid-binding globulin (Homo sapiens) (UniProt P08185)
# T2 sequence (whole entry): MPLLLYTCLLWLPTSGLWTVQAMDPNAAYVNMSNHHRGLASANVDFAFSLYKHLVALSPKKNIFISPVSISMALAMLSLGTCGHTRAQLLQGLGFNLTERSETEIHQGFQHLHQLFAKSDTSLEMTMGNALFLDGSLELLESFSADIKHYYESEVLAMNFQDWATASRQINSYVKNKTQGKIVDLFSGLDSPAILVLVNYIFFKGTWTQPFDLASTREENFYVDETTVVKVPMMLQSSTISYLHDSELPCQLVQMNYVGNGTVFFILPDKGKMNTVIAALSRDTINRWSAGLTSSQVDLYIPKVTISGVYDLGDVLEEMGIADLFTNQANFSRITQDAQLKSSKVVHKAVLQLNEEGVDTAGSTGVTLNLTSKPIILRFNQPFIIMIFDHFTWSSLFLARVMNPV
# Description: Binding affinity towards human corticosteroid binding globulin.
SMILES,pKa [1],Log 1/K [2],Log 1/K [3]
ClC1NC=CN1,3.55,,
C[C@]12CCC3C4=C(CCC3C1CCC2=O)CC(=O)C=C4 (stereo not given in full),,-8.18,-5
C[C@]12CCC(=O)C=C1CC[C@@H]1[C@@H]2CC[C@@]2(C)[C@H]1CC[C@]2(O)C(=O)CO,,-7.2,-7.88
CSC1NC=CN1,5.95,,
C[C@]12CCC(=O)C=C1CCC1C3CC[C@H](C(=O)CO)[C@@]34C[C@H](OC4O)C12 (stereo not given in full),,-5.32,-6.28
C[C@]12CCC(=O)C=C1CC[C@@H]1[C@@H]2CC[C@]2(C)C(=O)CC[C@@H]12,,-7.46,-5.76
CCCCc1cc2c(cn1)[nH]c1ccccc12,,-9.11,-5
CN1C=CNC1,7.12,,
CC(=O)[C@@]1(O)CC[C@H]2[C@@H]3CCC4=CC(=O)CC[C@]4(C)[C@H]3CC[C@@]21C,,-7,-7.74
C1=CNC(c2ccccc2)N1,6.48,,
C1=CNC(c2ccncc2)N1,5.36,,
CN1C=CNC1N (stereo not given),8.54,,
CN1C=CNC1Br (stereo not given),3.82,,
C[C@]12C[C@H](O)[C@H]3[C@@H](CCC4=CC(=O)CC[C@@]43C)[C@@H]1CC[C@@H]2C(=O)CO,,-6.34,-7.88
CN1C=CNC1F (stereo not given),2.3,,
NC1NC=CN1,8.46,,
CC1NC=CN1,7.86,,
O=[N+]([O-])C1NC=CN1,-0.81,,
C[C@]12CC[C@H]3[C@@H](CCC4=CC(=O)CC[C@@]43C)[C@@H]1CC[C@@H]2C(=O)CO,,-7.38,-7.65
C1=CNCN1,6.99,,
C[C@]12CC[C@@H](O)C[C@H]1CC[C@@H]1[C@@H]2CC[C@]2(C)C(=O)CC[C@@H]12,,-6.15,-5.22
C[C@]12CC[C@H](O)CC1=CC[C@@H]1[C@@H]2CC[C@]2(C)C(=O)CC[C@@H]12,,-7.82,-5
CC(=O)[C@@]1(O)CC[C@H]2[C@@H]3CC=C4C[C@@H](O)CC[C@]4(C)[C@H]3CC[C@@]21C,,-6.36,-5
CCC1NC=CN1,7.73,,
C[C@]12CCC(=O)C=C1CC[C@@H]1[C@@H]2C(=O)C[C@@]2(C)[C@H]1CC[C@]2(O)C(=O)CO,,-6.43,-6.89
C[C@]12CCC(=O)C=C1CC[C@@H]1[C@@H]2[C@@H](O)C[C@@]2(C)[C@H]1CC[C@]2(O)C(=O)CO,,-6.2,-7.88
CC(=O)[C@H]1CC[C@H]2[C@@H]3CC=C4C[C@@H](O)CC[C@]4(C)[C@H]3CC[C@]12C,,-7.15,-5.22
BrC1NC=CN1,3.79,,
FC1NC=CN1,2.4,,
CC(=O)[C@H]1CC[C@H]2[C@@H]3CCC4=CC(=O)CC[C@]4(C)[C@H]3CC[C@]12C,,-6.94,-7.38
